Test [1] concerns the target T1, rat VMAT2-His (Rattus norvegicus, UniProt Q01827).
T1 construct: The ORF of rat VMAT2 was subcloned into a pFastBac vector; His; made in house; host or cells: Sf9 insect cells (baculovirus)
Kind of test: Differential scanning fluorimetry (DSF) with CPM dye: change of melting temperature of purified VMAT2. In kind it is binding. The conditions noted are these: for ΔTm at 10 µM / ΔTm at 30 µM / ΔTm at 90 µM / ΔTm at 270 µM / ΔTm at 12 µM / ΔTm at 37 µM / ΔTm at 11 µM / ΔTm at 33 µM: read-out: ΔTm. The method, then:
To screen purified VMAT2 by DSF we expressed the rat VMAT2 protein, as VMAT2-His, in SF9 insect cells using the baculovirus expression system. The transporter was solubilized and purified in n-Dodecyl-β-D-maltoside (DDM)/cholesterol hemisuccinate (CHS) micelles by immobilized metal affinity chromatography (IMAC) and size exclusion chromatography (SEC). […] Screening was performed using DSF and the thiol-reactive dye 7-diethylamino-3-(4-maleimidophenyl)-4-methylcoumarin (CPM), an approach that monitors changes to the protein melting temperature (Tm) upon compound binding. Using CPM or other dyes, DSF-based assays have successfully been used in molecular-based screenings[34],[35]. […] DSF screening was performed in 384 well plates using the thiol-sensing dye 7-diethylamino-3-(4-maleimidophenyl)-4-methylcoumarin (CPM) (Merck). […] Protein melting curves were determined using a LightCycler 480 ii RT-PCR system (Roche), with a temperature ramp increasing from 25 to 95 °C at a rate of 2 °C/min. Data analysis was performed using an in-house software that automatically determines the protein midpoint melting temperature (Tm) based on the second derivative of the melting curves or using the HTSDSF explorer as described in ref. [58]. […] 6 μl of this mix was dispensed to each well of 384 well plates using a Multidrop™ Combi Reagent Dispenser (Thermo Scientific). […] All initial hits were then subjected to an initial validation in triplicates with a compound concentration of 200 μM and a ΔTm > 5× the standard deviation (SD) cut off. […] Processing of the data from the primary screening and the concentration-dependent validation was performed as reported.
For orientation: In DSF a fluorescence change marks the thermal transition of the protein.

Test [2] has as its target rat VMAT2 (Rattus norvegicus, UniProt Q01827). As to the kind of experiment: FFN206 uptake assay in transfected Hek293 cells.
Where [3] appears, read: Table S1, primary hits, average change in melting temperature vs controls, triplicates.
Where [4] appears, read: Table S2 dose response, compound 10 µM.
Where [5] appears, read: Table S2 dose response, compound 30 µM.
The mark [6] stands for this setting: Table S2 dose response, compound 90 µM.
[7] abbreviates: Table S2 dose response, compound 270 µM.
The mark [8] stands for this setting: Table S2 dose response, compound 0,12 µM.
Where [9] appears, read: Table S2 dose response, compound 0,37 µM.
Where [10] appears, read: Table S2 dose response, compound 1,11 µM.
[11] abbreviates: Table S2 dose response, compound 3,33 µM.

Structures can show the parent of a compound that is named as a salt. Where two headings read alike, the source gives them in different places.

T1 sequence (Q01827 whole entry): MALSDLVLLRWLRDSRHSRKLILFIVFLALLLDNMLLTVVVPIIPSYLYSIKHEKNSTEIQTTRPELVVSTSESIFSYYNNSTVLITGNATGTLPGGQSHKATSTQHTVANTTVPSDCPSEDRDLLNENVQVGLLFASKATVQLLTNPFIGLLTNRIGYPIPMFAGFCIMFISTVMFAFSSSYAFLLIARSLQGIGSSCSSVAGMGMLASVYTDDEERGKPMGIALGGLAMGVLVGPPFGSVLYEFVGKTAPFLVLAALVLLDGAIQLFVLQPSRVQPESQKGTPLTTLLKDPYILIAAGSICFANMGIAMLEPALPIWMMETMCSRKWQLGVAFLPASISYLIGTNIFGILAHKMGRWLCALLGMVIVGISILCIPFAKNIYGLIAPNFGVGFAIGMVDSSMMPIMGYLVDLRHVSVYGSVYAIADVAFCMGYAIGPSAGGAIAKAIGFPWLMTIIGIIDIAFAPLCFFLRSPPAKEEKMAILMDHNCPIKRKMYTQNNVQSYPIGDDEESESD
Chain of rat VMAT2 (Q01827 whole entry): as above

For `Clc1ccc(Cn2c(CN3CCCC3)nc3ccccc32)cc1` [Clemizole hydrochloride], in test [1] (setting [3]), the ΔTm is -1,46 ± 0,10 oC. The ΔTm at 10 µM in test [1] (setting [4]) came out at 0.33 °C. In test [1] (setting [5]), the ΔTm at 30 µM is 0.57 °C. In addition, the ΔTm at 90 µM in test [1] (setting [6]) was 0.31 °C. The ΔTm at 270 µM in test [1] (setting [7]) is -0.69 °C.
For orientation: IC50 means the midpoint of a concentration-inhibition curve. A higher IC50 goes with weaker potency. Regarding `C=CCOc1ccccc1OCC(O)CNC(C)C` (centres unmarked) [Oxprenolol, Oxprenolol hydrochloride], the IC50 in test [2] is 6.55 ± 3.49 µM.
In the case of `CCCCCCC[N+](CC)(CC)CCCCc1ccc(Cl)cc1.Cc1ccc(S(=O)(=O)[O-])cc1` [Clofilium tosylate], the ΔTm is recorded as -2,26 oC in test [1] (270 µM), -0,06 oC in test [1] (setting [4]), -0,15 oC in test [1] (setting [5]) and -0,36 oC in test [1] (setting [6]).
As to `CC(C)COCC(CN(Cc1ccccc1)c1ccccc1)N1CCCC1` (centres unmarked) [Bepridil hydrochloride], in test [1] (setting [8]), the ΔTm at 12 µM was -0.78 °C. The ΔTm at 37 µM in test [1] (setting [9]) was -0.68 °C. Besides, the ΔTm at 10 µM in test [1] (setting [4]) is -1.08 °C. The ΔTm at 30 µM in test [1] (setting [5]) was -1.2 °C. Further, the ΔTm at 90 µM in test [1] (setting [6]) is -1.63 °C. For the same molecule, the ΔTm at 270 µM in test [1] (setting [7]) was -3.8 °C. Moreover, the ΔTm at 11 µM in test [1] (setting [10]) is -0.75 °C. For the same molecule, the ΔTm at 33 µM in test [1] (setting [11]) was -0.93 °C.
Take `CN[C@@H]1C[C@@H](c2ccc(Cl)c(Cl)c2)c2ccccc21` [Indatraline hydrochloride]: the ΔTm at 10 µM in test [1] (setting [4]) was -0.37 °C. Moreover, the ΔTm at 30 µM in test [1] (setting [5]) was -0.63 °C. In addition, the ΔTm at 90 µM in test [1] (setting [6]) was -1.01 °C. For the same molecule, in test [1], the ΔTm at 11 µM is -0.28 °C, the ΔTm at 12 µM came out at 0.24 °C, the ΔTm at 33 µM was -0.41 °C and the ΔTm at 37 µM was 0.04 °C. In test [1], the ΔTm at 270 µM is -2.11 °C.
With `CN1CCN(CCCN2c3ccccc3Sc3ccc(C(F)(F)F)cc32)CC1` [Trifluoperazine dihydrochloride], in test [1], the ΔTm was -6,15 ± 0, 08 oC; the ΔTm at 10 µM was -0.69 °C; the ΔTm at 30 µM was -0.28 °C; the ΔTm at 90 µM was -0.23 °C. Moreover, the ΔTm at 270 µM in test [1] is -1.05 °C.
As for `CC(C)NCC(O)COc1ccc(COCCOC(C)C)cc1` (centres unmarked) [Bisoprolol], the ΔTm in test [1] (Table 1, DSF screening, mean ± SD of triplicates) came out at 1.49 ± 0.05 oC. This molecule also had a concentration for half-maximal inhibition (IC50) in test [2] of 3.17 ± 0.895 µM.
Take `CC(C)(C)c1ccc(C(O)CCCN2CCC(C(O)(c3ccccc3)c3ccccc3)CC2)cc1` (centres unmarked) [Terfenadine]: in test [1] (setting [3]), the ΔTm is reported as -13,22 ± 0,13 oC. Besides, in test [1] (setting [4]), the ΔTm at 10 µM turned out to be 0.21 °C. Also, the ΔTm at 30 µM in test [1] (setting [5]) was found to be 0.24 °C. Besides, the ΔTm at 90 µM in test [1] (setting [6]) is -0.01 °C. Moreover, the ΔTm at 270 µM in test [1] (setting [7]) was -0.6 °C.
Consider `Cc1cccc(C)c1NC(=O)CN1CCN(CCCC(c2ccc(F)cc2)c2ccc(F)cc2)CC1` [Lidoflazine], for which, in test [1] (setting [3]), the ΔTm is 1,35 ± 0,18 oC. In addition, the ΔTm at 12 µM in test [1] (setting [8]) was 0.23 °C. In addition, the ΔTm at 37 µM in test [1] (setting [9]) was determined as 0.05 °C. Further, the ΔTm at 10 µM in test [1] (setting [4]) was 0.23 °C. Moreover, the ΔTm at 30 µM in test [1] (setting [5]) came out at 0.21 °C. In addition, in test [1] (setting [6]), the ΔTm at 90 µM was found to be 0.33 °C. Further, the ΔTm at 270 µM in test [1] (setting [7]) stood at 1.14 °C. In test [1] (setting [10]), the ΔTm at 11 µM came to 0.12 °C. The ΔTm at 33 µM in test [1] (setting [11]) came to 0.16 °C.

Source of the values: PMC9684503 (Communications Biology, 2022).
